The values that follow come from ChEMBL document CHEMBL4483862, “Open-source discovery of chemical leads for next-generation chemoprotective antimalarials” (2018).

Molecules are shown by their SMILES.

This assay concerns Plasmodium berghei. Nature of the assay: Luciferase/luciferin-expressing antifolate-resistant parasites were used to infect a culture of HepG2 cells that were pre-incubated with compounds. Infected hepatocytes emit light due to the luciferase reaction. Assay results are presented as the percent inhibition of light emission compared to control. […]. It counts as functional. Particulars: sporozoite; for IC90: read-out: LUCIFERASE INFECTION ASSAY - IC90.

The mark [1] stands for this setting: read-out: LUCIFERASE INFECTION ASSAY - IC50.

The IC50 is the concentration that gives 50% inhibition. One may read the IC90 as the concentration at which the effect reaches the 90% level.

Consider `COc1ccc(Cl)cc1NC(=O)C(C)N1CCC(c2c[nH]c3ccccc23)CC1` (configuration not stated), for which the concentration for an effect of 90% (IC90) was 4.83 µM. The IC50 (FFLUC_HILL_SLOPE 15.4, FFLUC_R_SQUARED 0.69, PBLUC_HILL_SLOPE 100, PBLUC_R_SQUARED 0.101, read-out: LUCIFERASE INFECTION ASSAY - IC50) was found to be 4.73 µM.
As to `c1ccc2c(-n3ccnc3)nc(-c3ccsc3)nc2c1`, the IC90 was 7.73 µM. Moreover, the concentration for half-maximal inhibition (IC50) (HEPG2TOX_HILL_SLOPE 9, HEPG2TOX_R_SQUARED 0.711, PBLUC_HILL_SLOPE 3.68, 14.1, PBLUC_R_SQUARED 0.615, 0.129, read-out: LUCIFERASE INFECTION ASSAY - IC50) came to 4.26 µM.
For `COC(=O)c1c(NC(=O)c2ccoc2)c2cc(NCC3CC=CCC3)cnc2n1CC(C)C` (configuration not stated), the 90% effect concentration (IC90) is over 7.32 µM. Moreover, the IC50 (FFLUC_HILL_SLOPE 3.67, FFLUC_R_SQUARED 0.106, read-out: LUCIFERASE INFECTION ASSAY - IC50) is over 7.32 µM.
`COCCCn1c(C)cc(C(=O)CSc2nc(C)nc3c2c(=O)n(C)c(=O)n3CC(C)C)c1C`: the IC90 is over 10 µM. Further, under setting [1], the IC50 is over 10 µM.
Turning to `O=C(Nc1ccc(CNC(=O)C2Cc3cc(Cl)ccc3O2)cc1)c1ccco1` (configuration not stated), the IC90 was over 10 µM. Also, the IC50 under setting [1] was over 10 µM.
With `COc1ccc(N(C)S(=O)(=O)c2cccc(C(=O)Nc3ccc(Br)c(C(F)(F)F)c3)c2)cc1`, the IC90 is over 10 µM. The half-maximal inhibitory concentration (IC50) under setting [1] is over 10 µM.
Consider `Cc1cccc(C)c1NC(=O)N1[C@@H]2CC[C@@H](C2)[C@H]1c1nc2cccc(OCc3ccc(F)cc3)c2[nH]1`, for which the 90% effect concentration (IC90) is over 10 µM. For the same molecule, the concentration for half-maximal inhibition (IC50) (PBLUC_HILL_SLOPE 4.64, PBLUC_R_SQUARED 0.011, read-out: LUCIFERASE INFECTION ASSAY - IC50) was over 10 µM.
As for `COc1ccccc1-n1c(COc2ccccc2-c2ccccc2)nnc1SC(C(=O)NC(N)=O)C(C)C` (configuration not stated), the 90% effect concentration (IC90) was over 10 µM. Further, the IC50 (HEPG2TOX_HILL_SLOPE 0.0773, HEPG2TOX_R_SQUARED 0.0989, read-out: LUCIFERASE INFECTION ASSAY - IC50) is over 10 µM.
For `O=C(NCCC1=CCCCC1)c1cc2ccccc2c(=O)[nH]1`, the IC90 was over 10 µM. For the same molecule, the IC50 (HEPG2TOX_HILL_SLOPE 1.23, HEPG2TOX_R_SQUARED 0.699, PBLUC_HILL_SLOPE 12.6, PBLUC_R_SQUARED 0.339, read-out: LUCIFERASE INFECTION ASSAY - IC50) worked out at 9.57 µM.
As to `CC(=O)Nc1cc(C(=O)CSc2ncnc3sccc23)ccc1O`, the IC90 was over 10 µM. For the same molecule, the half-inhibitory concentration (IC50) under setting [1] is over 10 µM.
Take `Cc1c(C(=O)c2ccccc2)oc2ccc(NC(=O)c3ccco3)cc12`: the concentration for an effect of 90% (IC90) is over 9.56 µM. Under “PBLUC_HILL_SLOPE 11.9, PBLUC_R_SQUARED 0.0568, read-out: LUCIFERASE INFECTION ASSAY - IC50”, the IC50 was over 9.56 µM.
As to `Cc1cc(C(=O)CN(Cc2ccco2)S(=O)(=O)/C=C/c2ccccc2)c(C)n1C`, the 90% effect concentration (IC90) was over 10 µM. In addition, the IC50 (HEPG2TOX_HILL_SLOPE 3.54, HEPG2TOX_R_SQUARED 0.932, PBLUC_HILL_SLOPE 9.57, PBLUC_R_SQUARED 0.198, read-out: LUCIFERASE INFECTION ASSAY - IC50) turned out to be 8.84 µM.
As to `O=C(Nc1nc2ccccn2c1C(=O)NC1CCCCC1)c1cc(F)ccc1F`, the IC90 was found to be 2.12 µM. For the same molecule, the half-maximal inhibitory concentration (IC50) (HEPG2TOX_HILL_SLOPE 1.14, HEPG2TOX_R_SQUARED 0.869, PBLUC_HILL_SLOPE 2.93, PBLUC_R_SQUARED 0.682, read-out: LUCIFERASE INFECTION ASSAY - IC50) came to 1 µM.
Take `COc1ccc(C2CC(c3ccccc3)=NN2C(=O)CSc2ncnc3ccccc23)cc1` (configuration not stated): the 90% effect concentration (IC90) is over 10 µM. Under setting [1], the IC50 was over 10 µM.
As for `Cc1ccc(/C(C#N)=C/c2ccc(N(C)C)cc2)cc1`, the IC90 came out at 5.07 µM. For the setting “HEPG2TOX_HILL_SLOPE 1.36, HEPG2TOX_R_SQUARED 0.894, PBLUC_HILL_SLOPE 0.698, PBLUC_R_SQUARED 0.911, read-out: LUCIFERASE INFECTION ASSAY - IC50”, the IC50 came to 0.218 µM.
On to `COc1ccccc1-c1noc(COC(=O)c2c[nH]nc2-c2ccccc2)n1`, for which the 90% effect concentration (IC90) was over 10 µM. For the same molecule, the IC50 under setting [1] was over 10 µM.
With `N#CC1c2ccccc2Oc2ccccc21`, the concentration for an effect of 90% (IC90) is over 15.9 µM. For the same molecule, where the note is “FFLUC_HILL_SLOPE 8.54, FFLUC_R_SQUARED 0.413, HEPG2TOX_HILL_SLOPE 16, HEPG2TOX_R_SQUARED 0.746, PBLUC_HILL_SLOPE 2.78, PBLUC_R_SQUARED 0.395, read-out: LUCIFERASE INFECTION ASSAY - IC50”, the IC50 is 10.4 µM.
`COCCn1c(C)cc(C(=O)CN2C(=O)NC(C)(c3ccc(C(C)(C)C)cc3)C2=O)c1C` (configuration not stated): the IC90 is over 10 µM. Besides, the IC50 (PBLUC_HILL_SLOPE 3.36, PBLUC_R_SQUARED 0.275, read-out: LUCIFERASE INFECTION ASSAY - IC50) came out at 6.15 µM.
In the case of `CCCc1cc(=O)n2nc(COc3ccccc3)c(-c3ccccc3)c2[nH]1`, the IC90 was found to be 5.37 µM. For the same molecule, where the note is “HEPG2TOX_HILL_SLOPE 7.2, HEPG2TOX_R_SQUARED 0.777, PBLUC_HILL_SLOPE 5.33, PBLUC_R_SQUARED 0.154, read-out: LUCIFERASE INFECTION ASSAY - IC50”, the half-maximal inhibitory concentration (IC50) is 3.56 µM.
With `COc1ccc(-c2cc(NC(=O)C(C)NS(=O)(=O)c3ccc(C)cc3)ccc2OC(F)F)cc1` (configuration not stated), the 90% effect concentration (IC90) was over 10 µM. Also, under setting [1], the concentration for half-maximal inhibition (IC50) was 8.3 µM.
On to `Cc1ccc(C(=O)c2sc(Nc3ccc(F)cc3)c(-c3nnc(N4CCOCC4)n3-c3ccccc3)c2N)cc1C`, for which the IC90 was over 10 µM. The half-inhibitory concentration (IC50) (HEPG2TOX_HILL_SLOPE 7.05, HEPG2TOX_R_SQUARED 0.741, PBLUC_HILL_SLOPE 9.57, PBLUC_R_SQUARED 0.198, read-out: LUCIFERASE INFECTION ASSAY - IC50) came out at 8.84 µM.
As to `COc1ccccc1N1CCN(c2ncnc3sc(C)c(-c4ccc(F)cc4)c23)CC1`, the IC90 is over 10 µM. The IC50 (HEPG2TOX_HILL_SLOPE 0.826, HEPG2TOX_R_SQUARED 0.707, read-out: LUCIFERASE INFECTION ASSAY - IC50) was over 10 µM.
With `CSc1nccc(-c2sc(SC)c3c2CC(C)(C)CC3=O)n1`, the IC90 is over 9.41 µM. Further, the 50% inhibitory concentration (IC50) under setting [1] is over 9.41 µM.
`CCCNC(=O)C(C)NC(=O)Nc1c(C)cccc1CC` (configuration not stated): the concentration for an effect of 90% (IC90) is over 10 µM. Moreover, the IC50 (PBLUC_HILL_SLOPE 13.4, PBLUC_R_SQUARED 0.0478, read-out: LUCIFERASE INFECTION ASSAY - IC50) was over 10 µM.
In the case of `CC(=O)c1ccc(-c2ccc(C(=O)N3CCc4sccc4C3)o2)cc1`, the IC90 was over 10 µM. The IC50 (PBLUC_HILL_SLOPE 1.84, PBLUC_R_SQUARED 0.357, read-out: LUCIFERASE INFECTION ASSAY - IC50) was found to be 4.1 µM.
With `Cc1ccc(CNCc2nc(NCc3ccc(C)cc3)c3c(C)c(C)sc3n2)cc1`, the 90% effect concentration (IC90) was 4.22 µM. In addition, the IC50 (FFLUC_HILL_SLOPE 14.5, FFLUC_R_SQUARED 0.473, HEPG2TOX_HILL_SLOPE 357, HEPG2TOX_R_SQUARED 0.506, PBLUC_HILL_SLOPE 12.5, PBLUC_R_SQUARED 0.0149, read-out: LUCIFERASE INFECTION ASSAY - IC50) was determined as 3.54 µM.
As for `O=C(Cc1ccccc1)OC1(C(F)(F)F)C(=O)Nc2c1ccc1ccccc21` (configuration not stated), the IC90 was over 10 µM. Further, under setting [1], the IC50 is over 10 µM.
On to `O=C(CSCCCN1CCN(c2cccc(Cl)c2)CC1)NNC(=O)Nc1cc(Cl)cc(Cl)c1`, for which the IC90 was over 6.22 µM. The IC50 under setting [1] was over 6.22 µM.
In the case of `O=C(Nc1ccccc1)Nc1ccc(Cl)cc1[N+](=O)[O-]`, the IC90 came out at 5.21 µM. In addition, the IC50 (HEPG2TOX_HILL_SLOPE 12.3, HEPG2TOX_R_SQUARED 0.323, PBLUC_HILL_SLOPE 4.88, PBLUC_R_SQUARED 0.281, read-out: LUCIFERASE INFECTION ASSAY - IC50) was determined as 3.32 µM.
Turning to `COc1ccc(OC)c(CCNc2nc3cnc(-c4cccc(OC(F)(F)F)c4)cc3n2C)c1`, the concentration for an effect of 90% (IC90) was 4.72 µM. For the same molecule, the IC50 (HEPG2TOX_HILL_SLOPE 4.6, HEPG2TOX_R_SQUARED 0.893, PBLUC_HILL_SLOPE 3.53, PBLUC_R_SQUARED 0.694, read-out: LUCIFERASE INFECTION ASSAY - IC50) stood at 2.53 µM.
With `CCOC(=O)c1c(C)[nH]c(C)c1C(=O)COC(=O)c1c(OC)cccc1OC`, the IC90 is over 10 µM. Under setting [1], the IC50 is over 10 µM.
Consider `Cc1cc(C(=O)Cn2c(CO)nc3ccccc32)c(C)n1Cc1ccco1`, for which the concentration for an effect of 90% (IC90) is over 10 µM. In addition, the half-inhibitory concentration (IC50) (HEPG2TOX_HILL_SLOPE 21, HEPG2TOX_R_SQUARED 0.739, PBLUC_HILL_SLOPE 1.98, PBLUC_R_SQUARED 0.61, read-out: LUCIFERASE INFECTION ASSAY - IC50) came to 3.71 µM.
Take `Cc1cc(C)cc(NC(=O)CCN2c3ccccc3Sc3ccccc32)c1`: the IC90 is over 10 µM. Besides, the IC50 (FFLUC_HILL_SLOPE 15.9, FFLUC_R_SQUARED 0.234, read-out: LUCIFERASE INFECTION ASSAY - IC50) was over 10 µM.
Take `CCc1cccc(CC)c1N(C(C)=O)c1nc(/C=C/C(=O)c2ccc3c(c2)OCCO3)cs1`: the 90% effect concentration (IC90) stood at 3.81 µM. In addition, where the note is “FFLUC_HILL_SLOPE 12.1, FFLUC_R_SQUARED 0.466, HEPG2TOX_HILL_SLOPE 15.2, HEPG2TOX_R_SQUARED 0.81, PBLUC_HILL_SLOPE 12.5, PBLUC_R_SQUARED 0.644, read-out: LUCIFERASE INFECTION ASSAY - IC50”, the half-inhibitory concentration (IC50) came to 3.2 µM.
Consider `Cc1ccc(C)c(-n2c(SC(C)c3nc(N)nc(N(C)C)n3)nc3ccccc3c2=O)c1` (configuration not stated), for which the IC90 was over 10 µM. Further, the IC50 (FFLUC_HILL_SLOPE 0.719, FFLUC_R_SQUARED 0.145, PBLUC_HILL_SLOPE 15.9, PBLUC_R_SQUARED 0.219, read-out: LUCIFERASE INFECTION ASSAY - IC50) stood at 9.47 µM.
For `COc1ccc(-c2nn(-c3ccccc3)cc2/C=C/C(=O)Nc2nc3c(C)cccc3s2)cc1OC`, the IC90 is over 10 µM. Also, under setting [1], the IC50 came to 6.8 µM.
